Source: patent publication USRE47689E1, “Compounds for treating spinal muscular atrophy” (PTC Therapeutics, Inc., priority 2011, dated 2019)
Like-named read-outs stand apart in the source and are kept apart here.

How the values were obtained:
[1] = test system: SMN2 minigene (full length SMN2 minigene mRNA containing SMN2 exon 7); experiment: SMN2 minigene mRNA splicing RT-qPCR assay in cultured cells; type: cell-based, human; settings: Homo sapiens, HEK293-H, read-out: EC1.5x for production of full length SMN2 mRNA
Summary of the method: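 HEK293H cells stably carrying the SMN2-A minigene treated 24 h at 37° C with compound (DMSO, 200× stock), then lysed. Multiplex RT-qPCR (SMN primers 0.4 μM final; 40 cycles) measures full-length exon 7-containing minigene mRNA, normalized to GAPDH and to vehicle; EC1.5x derived and binned by stars.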

[2] = test system: Smn protein; experiment: Smn protein assay in cultured cells (SMN HTRF); type: cell-based, human; settings: 48 hours; for maximum fold (Fold) increase of Smn protein: SMA patient fibroblast cells, 7-point concentration data, fold increase relative to vehicle control (SMN HTRF); for EC1.5x (concentration giving 1.5-fold Smn protein increase): SMA Type 1 patient fibroblast cells (GM03813), 7-point concentration curve, SMN HTRF, concentration producing 1.5 times Smn protein vs DMSO vehicle control, read-out: EC1.5x for Smn protein expression
Summary of the method: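 Lysates in RIPA with protease inhibitors are incubated overnight at room temperature with HTRF anti-SMN antibodies. EC1.5x is derived from fold increase in ΔF over vehicle.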

[3] = HEK293H cells stably transfected with SMN2-A minigene, 24 hours, 7-point concentration curve, 1.5-fold relative to vehicle-treated cells

| SMILES | EC (1.5-fold) [1, 3] [µM] | maximum fold (Fold) increase of Smn protein [2] | melting point [°C] | EC (1.5-fold) ([1]; 24 h) [µM] | EC1.5x (concentration giving 1.5-fold Smn protein increase) [2] [nM] |
| --- | --- | --- | --- | --- | --- |
| Cc1ccc2nc(-c3cc4ccc(N5CCN[C@@H](C)C5)cc4oc3=O)cn2n1 [Compound 624, 3-(6-methylimidazo[1,2-b]pyridazin-2-yl)-7-[(3S)-3-methylpiperazin-1-yl]-2H-chromen-2-one] | < 0.1 | *** (fold increase between >1.35 and ≤1.5) | 208 to 212 |  |  |
| Cc1ccn2cc(-c3cc4ccc(N5CCNCC5)cc4oc3=O)nc2n1 [Compound 223, 3-(7-methylimidazo[1,2-a]pyrimidin-2-yl)-7-(piperazin-1-yl)-2H-chromen-2-one] | 0.3 to 1 | * (maximum fold increase of ≤1.2) | 295 to 298 |  |  |
| Cc1ccn2cc(-c3cc4ccc(O[C@@H]5CCNC5)cc4oc3=O)nc2n1.Cl.Cl [Compound 322, 3-(7-methylimidazo [1,2-a]pyrimidin-2-yl)-7-[(3R)-pyrrolidin-3-yloxy]-2H-chromen-2-one hydrochloride (1:2)] | 0.3 to 1 | ** (fold increase between >1.2 and ≤1.35) | 292 to 296 |  |  |
| O=c1oc2cc(N3CCNCC3)ccc2cc1-c1cc2ccccc2s1 [Compound 407, 3-(1-benzothiophen-2-yl)-7-(piperazin-1-yl)-2H-chromen-2-one] | 0.3 to 1 | * (maximum fold increase of ≤1.2) | 243 to 245 |  |  |
| Cc1csc2nc(-c3cc4ccc(N5C[C@@H](C)N[C@@H](C)C5)cc4oc3=O)cn12 [Compound 182, 7-[(3R,5S)-3,5-dimethylpiperazin-1-yl]-3-(3-methylimidazo[2,1-b][1,3]thiazol-6-yl)-2H-chromen-2-one] | 1 to 3 | ** (fold increase between >1.2 and ≤1.35) | 211 to 215 |  |  |
| O=c1oc2cc(N3CCNCC3)ccc2cc1-c1ccsc1 [Compound 319, 7-(piperazin-1-yl)-3-(thiophen-3-yl)-2H-chromen-2-one] |  | ** (fold increase between >1.2 and ≤1.35) | 175 to 177 | 1 to 3 |  |
| Cc1cc(Cl)c2nc(-c3cc4ccc(N5CCCN(C)CC5)cc4oc3=O)cn2c1 [Compound 344, 3-(8-chloro-6-methylimidazo[1,2-a]pyridin-2-yl)-7-(4-methyl-1,4-diazepan-1-yl)-2H-chromen-2-one] | 0.3 to 1 | ** (fold increase between >1.2 and ≤1.35) | 224 to 230 |  |  |
| O=c1oc2cc(N3CCNCC3)ccc2cc1-c1cccc(N2CCCC2)n1 [Cpd 386, 7-(piperazin-1-yl)-3-[6-(pyrrolidin-1-yl)pyridin-2-yl]-2H-chromen-2-one] | 3 to 30 | * (maximum fold increase of ≤1.2) | 190 to 192 |  |  |
| Cc1cn2cc(-c3cc4ccc(N5CC[C@H](NC(=O)OC(C)(C)C)C5)cc4oc3=O)cc2c(C)n1 [Compound 724, tert-butyl {(3S)-1-[3-(1,3-dimethylpyrrolo[1,2-a]pyrazin-7-yl)-2-oxo-2H-chromen-7-yl]pyrrolidin-3-yl}carbamate] | 1 to 3 | * (maximum fold increase of ≤1.2) | 193 to 196 |  |  |
| Cc1cc2cc(-c3cc4ccc(N5CCN[C@H](C)C5)cc4oc3=O)oc2c(C)n1 [Compound 806, 3-(5,7-dimethylfuro[2,3-c]pyridin-2-yl)-7-[(3R)-3-methylpiperazin-1-yl]-2H-chromen-2-one] | < 0.1 | ***** (fold increase >1.65) | 251 to 256 |  | < 300 |
| Cc1ccc2nc(-c3cc4cc(F)c(N5CCNCC5)cc4oc3=O)cn2c1 [Compound 158, 6-fluoro-3-(6-methylimidazo[1,2-a]pyridin-2-yl)-7-(piperazin-1-yl)-2H-chromen-2-one] | 1 to 3 | ** (fold increase between >1.2 and ≤1.35) | 245 to 250 |  |  |
| Cc1ccn2cc(-c3cc4ccc(N[C@H]5CCNC5)cc4oc3=O)nc2c1 [Compound 581, 3-(7-methylimidazo[1,2-a]pyridin-2-yl)-7-[(3S)-pyrrolidin-3-ylamino]-2H-chromen-2-one] | 0.3 to 1 | * (maximum fold increase of ≤1.2) | 243 to 253 |  |  |
| Cc1ccc2nc(-c3cc4ccc(N5CCC(N)CC5)cc4oc3=O)cn2c1 [Compound 219, 7-(4-aminopiperidin-1-yl)-3-(6-methylimidazo[1,2-a]pyridin-2-yl)-2H-chromen-2-one] | 3 to 30 | * (maximum fold increase of ≤1.2) | 250 to 252 |  |  |
| Cc1cn2cc(-c3cc4ccc(N5CCN(C6COC6)CC5)cc4oc3=O)nc2c(C)n1 [Compound 823, 3-(6,8-dimethylimidazo[1,2-a]pyrazin-2-yl)-7-[4-(oxetan-3-yl)piperazin-1-yl]-2H-chromen-2-one] | 0.3 to 1 | **** (fold increase between >1.5 and ≤1.65) | 230 to 235 |  | 1000 to 3000 |
| Cc1c(-c2nc3ccccc3s2)c(=O)oc2cc(N3CCNCC3)ccc12 [Compound 147, 3-(1,3-benzothiazol-2-yl)-4-methyl-7-(piperazin-1-yl)-2H-chromen-2-one] | 1 to 3 | * (maximum fold increase of ≤1.2) | 234 to 236 |  |  |
| CC1(C)CN(c2ccc3cc(-c4cn5ccc(C(F)(F)F)cc5n4)c(=O)oc3c2)CCN1 [Compound 269, 7-(3,3-dimethylpiperazin-1-yl)-3-[7-(trifluoromethyl)imidazo[1,2-a]pyridin-2-yl]-2H-chromen-2-one] | 1 to 3 | * (maximum fold increase of ≤1.2) | 221 to 227 |  |  |
| Cc1nccn2cc(-c3cc4ccc(N5CCN[C@@H](C)C5)cc4oc3=O)cc12 [Compound 566, 7-[(3S)-3-methylpiperazin-1-yl]-3-(1-methylpyrrolo[1,2-a]pyrazin-7-yl)-2H-chromen-2-one] | < 0.1 | **** (fold increase between >1.5 and ≤1.65) | 184 to 186 |  | < 300 |
| Cc1cn2cc(-c3cc4ccc(CCCNC5CCOC5)cc4oc3=O)nc2c(C)n1 (stereo not shown) [Compound 939, 3-(6,8-dimethylimidazo[1,2-a]pyrazin-2-yl)-7-[3-(tetrahydrofuran-3-ylamino)propyl]-2H-chromen-2-one] | < 0.1 | ***** (fold increase >1.65) | 177 to 180 |  | < 300 |
| Cc1cn2cc(-c3cc4ccc(N5CCCN(C)CC5)cc4oc3=O)nc2s1 [Compound 153, 7-(4-methyl-1,4-diazepan-1-yl)-3-(2-methylimidazo[2,1-b][1,3]thiazol-6-yl)-2H-chromen-2-one] | 1 to 3 | *** (fold increase between >1.35 and ≤1.5) | 179 to 184 |  |  |
| Cc1cc2cc(-c3cc4ccc(N5CCNCC5)cc4oc3=O)oc2c(C)n1 [Cpd 723, 3-(5,7-dimethylfuro[2,3-c]pyridin-2-yl)-7-(piperazin-1-yl)-2H-chromen-2-one] | < 0.1 | ***** (fold increase >1.65) | 218 to 220 |  | < 300 |
| COc1ccc(-c2cc3ccc(N4CCN[C@@H](C)C4)cc3oc2=O)cc1F [Compound 545, 3-(3-fluoro-4-methoxyphenyl)-7-[(3S)-3-methylpiperazin-1-yl]-2H-chromen-2-one] | 0.1 to 0.3 | *** (fold increase between >1.35 and ≤1.5) | 141 to 143 |  |  |
| CCN(CC)C1CCN(c2ccc3cc(-c4cn5cc(C)nc(C)c5n4)c(=O)oc3c2)CC1 [Compound 922, 7-[4-(diethylamino)piperidin-1-yl]-3-(6,8-dimethylimidazo[1,2-a]pyrazin-2-yl)-2H-chromen-2-one] | < 0.1 | *** (fold increase between >1.35 and ≤1.5) | 205 to 207 |  | 300 to 1000 |
| COc1cccc(-c2cc3ccc(N4CCNCC4)cc3oc2=O)n1 [Cpd 218, 3-(6-methoxypyridin-2-yl)-7-(piperazin-1-yl)-2H-chromen-2-one] | 0.3 to 1 | ** (fold increase between >1.2 and ≤1.35) | 162 to 165 |  |  |
| Cc1cn2cc(-c3cc4ccc(C5CCN(CCO)CC5)cc4oc3=O)nc2cn1 [Compound 843, 7-[1-(2-hydroxyethyl)piperidin-4-yl]-3-(6-methylimidazo[1,2-a]pyrazin-2-yl)-2H-chromen-2-one] | < 0.1 | **** (fold increase between >1.5 and ≤1.65) | 230 to 236 |  | < 300 |
